Read-outs that look alike come from different tables or passages of the source.
Experiments:
[1] = Stability experiments of crystal forms (60°C/75% RH, HPLC related substances); format: physicochemical; settings: for Stability under high temperature and high humidity conditions (in words): 60°C/75% humidity, 1 week
Method: A certain amount (approximately 10 mg) of two parts of the crystal form A of the compound of formula (I), the crystal form B of the compound of formula (II) and the crystal form C of the compound of formula (III) were weighed in parallel, and added to a 40 mL of sample bottle, which were placed in a constant temperature and humidity box at 60° C./75% humidity for 1 week. Another sample (about 10 mg) of the crystal form A of the compound of formula (I), the crystal form B of the compound of formula (II) and the crystal form C of the compound of formula (III) were placed in a refrigerator at −20° C. as control samples. At the time point of investigation, the corresponding test sample was taken out of the stability box, the aluminum foil paper was removed from the sample bottle of 60° C./75% RH, and the sample bottle was covered with a bottle cap. The 0-day samples were taken out of the refrigerator and analyzed after the samples were restored to room temperature.

[2] = Pharmacokinetic experiment in mice, single intravenous and oral administration; format: in vivo; settings: female, mouse, plasma; Balb/c mice, oral vs intravenous; read-out: Bioavailability F
Method: Experimental materials: Balb/c mice (female, 15-30 g, 7-9 weeks old, Shanghai Lingchang) were used.
Experimental method: The rodent pharmacokinetic characteristics of the compound after intravenous injection and oral administration were tested by a standard protocol. In the experiment, the candidate compound was formulated into a clear solution and given to mice by a single intravenous injection and a single oral administration. The solvent for intravenous injection (IV) was a mixed solvent of 5% DMSO/5% polyethylene glycol hydroxystearate/90% water, and the solvent for oral (PO) was a mixed solvents of 1% tween80, 9% PEG400, 90% H2O (pH=3). Whole blood samples within 48 hours were collected, centrifuged at 3000 g for 15 minutes at 4 degrees, separated the supernatant to obtain a plasma sample. Then 20 times the volume of acetonitrile solution containing internal standard was added to precipitate the protein, the mixture was centrifuged to take the supernatant, equal volume of water was added and centrifuge to take the supernatant again for injection. The blood drug concentration was quantitatively analyzed by LC-MS/MS analysis method, and the pharmacokinetic parameters were calculated, such as peak concentration, peak time, clearance rate, half-life, area under the drug-time curve, bioavailability, etc.

[3] = In vivo PK experiment, plasma and tumor tissue on day 20 of the efficacy experiment; set-up: species or system BALB/c mice; settings: BALB/c, mouse, oral; for concentration at 1 h / concentration at 4 h: tumor, read-out: Tumor drug concentration
Method: Blood was collected and tissues were collected from each group of the experiment at different time points (0 h, 0.25 h, 0.5 h, 1 h, 2 h, 4 h, 8 h and 24 h) on day 20 of the administration of experimental embodiment 3. The pharmacokinetic parameters of each experimental group were shown in Table 12, and the biological ratios of the tumor tissue drug concentration and the corresponding blood sampling point tumor tissue drug concentration and plasma drug concentration of each experimental group were shown in Table 13.

[4] = system: mouse colon cancer CT26 cells; assay: In vivo drug efficacy experiment, subcutaneous CT26 allograft tumor; set-up: species or system BALB/c mice; settings: CS1003 1 mg/kg intraperitoneal, day 20
Method: Experimental materials: BALB/c mice (female); mouse colon cancer CT26 cells (cell bank of the Type Culture Collection Committee of the Chinese Academy of Sciences), were cultured in a monolayer in vitro, and the culture condition was RPMI-1640 medium containing 10% fetal bovine serum, and cultured in 5% CO2 incubator at 37° C. Trypsin-EDTA was used for conventional digestion and passage. When the cells were in the exponential growth phase and the saturation was 80%-90%, the cells were collected and counted.
Compound preparation: The compound of formula (II-1) was weighed and added to a solvent (10% PEG400+90% (10% Cremophor aqueous solution)) to prepare samples of 2.5 mg/mL, 5 mg/mL, and 10 mg/mL, respectively. […]
Experimental operation: The cells in Dulbecco's phosphate buffer were resuspended at a density of 3×10^6 cells/mL. […] During the entire experiment, the animals were weighed and monitored daily. […] The tumor diameter was measured with vernier calipers twice a week. […]
The anti-tumor efficacy of the compound was evaluated by GI (%) or relative tumor proliferation rate T/C (%). […]
The statistical analysis was based on the relative tumor volume and tumor weight at the end of the experiment using SPSS software. The comparison between the two groups was analyzed by t-test, and the comparison between three or more groups was analyzed by one-way ANOVA. […]

Impurity at relative retention time 0.36 ([1]; 0 day (control sample, -20°C)) | Impurity at relative retention time 0.45 ([1]; 0 day (control sample, -20°C)) | Impurity at relative retention time 0.49 ([1]; 0 day (control sample, -20°C)) | Impurity at relative retention time 0.67 ([1]; 0 day (control sample, -20°C)) | Impurity at relative retention time 0.70 ([1]; 0 day (control sample, -20°C)) | Impurity at relative retention time 1.18 ([1]; 0 day (control sample, -20°C)) | Total impurities % ([1]; 0 day (control sample, -20°C)) [%] | Impurity at relative retention time 0.36 ([1]; 60 C./75% RH, one week) | Impurity at relative retention time 0.45 ([1]; 60 C./75% RH, one week) | Impurity at relative retention time 0.49 ([1]; 60 C./75% RH, one week) | Impurity at relative retention time 0.67 ([1]; 60 C./75% RH, one week) | Impurity at relative retention time 0.70 ([1]; 60 C./75% RH, one week) | Impurity at relative retention time 1.18 ([1]; 60 C./75% RH, one week) | Total impurities % ([1]; 60 C./75% RH, one week) [%] | Stability under high temperature and high humidity conditions (in words) [1] | Molecule | other results
0.05 | 0.09 | 0.08 | 0.04 | 0.09 | 0.50 | 0.96 | 0.05 | 0.09 | 0.08 | 0.04 | 0.09 | 0.52 | 1.16 | good stability | Nc1nc(-c2ccc(F)cc2)c(-c2ccc3ncnn3c2)c2nccnc12 [Crystal form C of the compound of formula (III)] | 
0.09 | 0.10 | 0.09 | 0.05 | 0.15 | 0.40 | 0.87 | 0.09 | 0.10 | 0.09 | 0.05 | 0.15 | 0.40 | 0.87 | good stability | Nc1nc(-c2ccc(F)cc2)c(-c2ccc3ncnn3c2)c2nccnc12 [Crystal form B of the compound of formula (II)] | 

The remaining lines, values behind:

Molecule | Impurity at relative retention time 0.36 ([1]; 0 day (control sample, -20°C)) | Impurity at relative retention time 0.45 ([1]; 0 day (control sample, -20°C)) | Impurity at relative retention time 0.49 ([1]; 0 day (control sample, -20°C)) | Impurity at relative retention time 0.67 ([1]; 0 day (control sample, -20°C)) | Impurity at relative retention time 0.70 ([1]; 0 day (control sample, -20°C)) | Impurity at relative retention time 1.18 ([1]; 0 day (control sample, -20°C)) | Total impurities % ([1]; 0 day (control sample, -20°C)) [%] | Impurity at relative retention time 0.36 ([1]; 60 C./75% RH, one week) | Impurity at relative retention time 0.45 ([1]; 60 C./75% RH, one week) | Impurity at relative retention time 0.49 ([1]; 60 C./75% RH, one week) | Impurity at relative retention time 0.67 ([1]; 60 C./75% RH, one week) | Impurity at relative retention time 0.70 ([1]; 60 C./75% RH, one week) | Impurity at relative retention time 1.18 ([1]; 60 C./75% RH, one week) | Total impurities % ([1]; 60 C./75% RH, one week) [%] | Stability under high temperature and high humidity conditions (in words) [1] | other results
Nc1nc(-c2ccc(F)cc2)c(-c2ccc3ncnn3c2)c2nccnc12.O=C(O)/C=C\C(=O)O | 0.06 | 0.09 | 0.09 | 0.05 | 0.11 | 0.29 | 0.69 | 0.05 | 0.09 | 0.09 | 0.05 | 0.12 | 0.29 | 0.69 | good stability | 
Nc1nc(-c2ccc(F)cc2)c(-c2ccc3ncnn3c2)c2nccnc12 [Compound of formula (II-1)] |  |  |  |  |  |  |  |  |  |  |  |  |  |  |  | bioavailability [2]: 30.4%; concentration at 1 h ([3]; 25 mpk, Group 4, 25 mpk + CS1003, time point 1 h): 3.48 µM; concentration at 4 h ([3]; 25 mpk, Group 4, 25 mpk + CS1003, time point 4 h): 0.925 µM; concentration at 1 h ([3]; 50 mpk, Group 5, 50 mpk once a day + CS1003, time point 1 h): 9.96 µM; concentration at 4 h ([3]; 50 mpk, Group 5, 50 mpk once a day + CS1003, time point 4 h): 1.66 µM; concentration at 4 h ([3]; 50 mpk, Group 8, 50 mpk twice a day + CS1003, time point 4 h): 3.02 µM; concentration at 1 h ([3]; 100 mpk, Group 6, 100 mpk + CS1003, time point 1 h): 18.7 µM; concentration at 4 h ([3]; 100 mpk, Group 6, 100 mpk + CS1003, time point 4 h): 3.03 µM; Kp at 1 h ([3]; tumor/plasma, Group 4, 25 mpk + CS1003, time point 1 h, read-out: T/P Ratio (compound exposure in tumor tissue and plasma)): 0.7
CS1003: full-length, fully humanized immunoglobulin G4 (IgG4) monoclonal antibody against PD-1 (antibody, chains of the INN, looked up, V domains shown) VH: QVQLVQSGAEVKKPGSSVKVSCKASGFTFTTYYISWVRQAPGQGLEYLGYINMGSGGTNYNEKFKGRVTITADKSTSTAYMELSSLRSEDTAVYYCAIIGYFDYWGQGTMVTVSS VL: DVVMTQSPLSLPVTLGQPASISCRSSQSLLDSDGGTYLYWFQQRPGQSPRRLIYLVSTLGSGVPDRFSGSGSGTDFTLKISRVEAEDVGVYYCMQLTHWPYTFGQGTKLEIK |  |  |  |  |  |  |  |  |  |  |  |  |  |  |  | Tumor volume [4]: 487.34±109.07 mm^3; Tumor inhibition rate GI ([4]; no significant difference with solvent control): 42.47%

Reference: patent US12583869B2, “Salt form and crystal form of A2A receptor antagonist and preparation method therefor” (CSTONE PHARMACEUTICAL (SUZHOU) CO., LTD., priority 2019, dated 2026)
